The values that follow are results of earlier work, collected in US20180289729A1, “COMBINATION THERAPY FOR TREATMENT OF HUMAN NEURODEGENERATIVE DISEASES” (priority 2017, published 2018).

In data set [1] the test system is hippocampal neurogenesis. Particulars: rat models.
In data set [2] the test system is proliferating neural stem and progenitor cells within the hippocampal dentate gyrus. Particulars: both young and "old" mice models.

As to `CCCCCCC(C)(C)c1cc(O)c2c(c1)OC(C)(C)[C@@H]1CC=C(CO)C[C@@H]21` [[(6aR)-trans-3-(1,1-dimethylheptyl)-6a, 7,10,10a-tetrahydro-1-hydroxy-6,6-dimethyl-6H-dibenzo [b,d]pyran-9-methanol]], the “effect on hippocampal neurogenesis” value in data set [1] is recorded as “dramatic effect”. `Cc1cccc(-c2n[nH]cc2-c2ccc3ncccc3n2)n1` [2-(3-(6-methylpyricin-2-yl)-1H-pyrazol-4-yl)-1,5-naphthyridine]: in data set [2], the “increase in the number of proliferating neural stem and progenitor cells within the hippocampal dentate gyrus” value is “two-fold increase”.
